The test system of data set [1] is Rattus norvegicus. The data set can be described thus: Hypobetalipoproteinemic activity in diet-induced hypercholesteremic rat model assessed as decrease in total serum cholesterol at 50 mg/kg, po relative to control. In kind it is functional.
The test system of data set [2] is Rattus norvegicus. In words: Hypobetalipoproteinemic activity in diet-induced hypercholesteremic rat model assessed as decrease in heparin precipitating lipoproteins at 50 mg/kg, po relative to control. In kind it is functional.
The species named for data set [3] is Rattus norvegicus. The data set can be described thus: Selectivity ratio of T/C for heparin precipitating lipoproteins to T/C for total serum cholesterol in diet-induced hypercholesteremic rat model. In kind it is functional.
Data set [4] concerns Rattus norvegicus. In words: Toxicity in diet-induced hypercholesteremic rat model assessed as increase in body weight at 50 mg/kg, po relative to control. Further details: dose 50 mg/kg, route oral. In kind it is organism-based. To be noted: in vivo.
The test system of data set [5] is Rattus norvegicus. The data set can be described thus: Toxicity in diet-induced hypercholesteremic rat model assessed as increase in food intake at 50 mg/kg, po relative to control. In kind it is organism-based. Set-up: dose 50 mg/kg, route oral. To be noted: in vivo.

The values that follow come from ChEMBL document CHEMBL3228009, “Hypobetalipoproteinemic agents. 2. Compounds related to 4-(1-adamantyloxy)aniline” (J Med Chem, 1979).

Bounds are passed on as bounds.

Consider `Nc1ccc(S(=O)(=O)C23CC4CC(CC(C4)C2)C3)cc1`, for which the T/C is 1.12 in the data set with Rattus norvegicus [1] and 1.07 in the data set with Rattus norvegicus [2]. In the data set filed under Rattus norvegicus [3], the Selectivity ratio is 0.95. Besides, the Activity with Rattus norvegicus [4] was more than 63%; in the data set on Rattus norvegicus [5], more than 73%.

Regarding `Nc1ccc(SC23CC4CC(CC(C4)C2)C3)cc1`, the T/C in the data set on Rattus norvegicus [1] was 0.51; with Rattus norvegicus [2], 0.45. The Selectivity ratio in the data set listed under Rattus norvegicus [3] is listed as 0.87. In addition, the figures for the Activity with Rattus norvegicus [4] and with Rattus norvegicus [5] were more than 63% and more than 73%, respectively.

Regarding `c1cc(C23CC4CC(CC(C4)C2)C3)ccc1N1CCCC1`, the T/C worked out at 1.17 in the data set on Rattus norvegicus [1] and 0.9 with Rattus norvegicus [2]. The Selectivity ratio in the data set filed under Rattus norvegicus [3] worked out at 0.77. In addition, the Activity is recorded as more than 63% in the data set with Rattus norvegicus [4] and more than 73% in the data set on Rattus norvegicus [5].

Consider `Cl.Nc1ccc(CC23CC4CC(CC(C4)C2)C3)cc1`, for which the T/C was determined as 0.45 in the data set on Rattus norvegicus [1] and 0.23 in the data set on Rattus norvegicus [2]. Also, in the data set listed under Rattus norvegicus [3], the Selectivity ratio was found to be 0.5. Also, the Activity is reported as more than 63% in the data set with Rattus norvegicus [4] and more than 73% in the data set with Rattus norvegicus [5].

`CNc1ccc(CC23CC4CC(CC(C4)C2)C3)cc1.Cl`: the T/C with Rattus norvegicus [1] came out at 0.55; in the data set on Rattus norvegicus [2] it was 0.45. Further, the Selectivity ratio in the data set listed under Rattus norvegicus [3] was found to be 0.82. Further, the Activity was more than 63% in the data set with Rattus norvegicus [4] and more than 73% with Rattus norvegicus [5].

Take `c1cc(N2CCCC2)ccc1CC12CC3CC(CC(C3)C1)C2`: the values for the T/C with Rattus norvegicus [1] and in the data set with Rattus norvegicus [2] were 0.82 and 0.87, respectively. In addition, the Selectivity ratio in the data set filed under Rattus norvegicus [3] stood at 1.06. The Activity with Rattus norvegicus [4] is on record as more than 63%; with Rattus norvegicus [5] it was more than 73%.

Turning to `Cl.Nc1ccccc1CC12CC3CC(CC(C3)C1)C2`, the T/C in the data set on Rattus norvegicus [1] worked out at 0.86; in the data set on Rattus norvegicus [2] it was 0.89. Moreover, the Selectivity ratio in the data set listed under Rattus norvegicus [3] came out at 1.03. Moreover, the Activity was more than 63% in the data set with Rattus norvegicus [4] and more than 73% with Rattus norvegicus [5].

`c1ccc(N2CCCC2)c(CC23CC4CC(CC(C4)C2)C3)c1`: the T/C in the data set on Rattus norvegicus [1] is recorded as 1.39; in the data set with Rattus norvegicus [2], 1.4. The Selectivity ratio in the data set filed under Rattus norvegicus [3] is on record as 1.01. Moreover, the Activity in the data set on Rattus norvegicus [4] is on record as more than 63%; in the data set with Rattus norvegicus [5] it was more than 73%.

With `CN(c1ccc(N)cc1)C12CC3CC(CC(C3)C1)C2.Cl`, the T/C is recorded as 0.84 in the data set with Rattus norvegicus [1] and 0.82 with Rattus norvegicus [2]. The Selectivity ratio in the data set listed under Rattus norvegicus [3] turned out to be 0.98. Moreover, the values for the Activity in the data set with Rattus norvegicus [4] and with Rattus norvegicus [5] were less than 63% and less than 73%, respectively.

On to `CN(c1ccc(N2CCCC2)cc1)C12CC3CC(CC(C3)C1)C2`, for which the T/C in the data set with Rattus norvegicus [1] was 0.93; with Rattus norvegicus [2] it was 1.02. In addition, the Selectivity ratio in the data set filed under Rattus norvegicus [3] is 1.1. Also, the results for the Activity in the data set on Rattus norvegicus [4] and in the data set with Rattus norvegicus [5] were less than 63% and more than 73%, respectively.

`Nc1ccc(NC23CC4CC(CC(C4)C2)C3)cc1`: the T/C is reported as 0.94 with Rattus norvegicus [1] and 0.85 in the data set on Rattus norvegicus [2]. Also, the Selectivity ratio in the data set filed under Rattus norvegicus [3] is on record as 0.9. Also, the figures for the Activity with Rattus norvegicus [4] and in the data set on Rattus norvegicus [5] were less than 63% and more than 73%, respectively.

As to `CC(=O)Nc1ccc(N(C(C)=O)C23CC4CC(CC(C4)C2)C3)cc1`, the T/C with Rattus norvegicus [1] came to 1; in the data set on Rattus norvegicus [2], 0.98. Further, in the data set listed under Rattus norvegicus [3], the Selectivity ratio is on record as 0.98. In addition, the figures for the Activity in the data set with Rattus norvegicus [4] and with Rattus norvegicus [5] were more than 63% and more than 73%, respectively.

`c1cc(N2CCCC2)ccc1SC12CC3CC(CC(C3)C1)C2`: the T/C with Rattus norvegicus [1] turned out to be 0.83; with Rattus norvegicus [2], 0.95. For the same compound, the Selectivity ratio in the data set listed under Rattus norvegicus [3] is 1.14. Also, the Activity in the data set with Rattus norvegicus [4] is recorded as more than 63%; with Rattus norvegicus [5], more than 73%.

Turning to `Nc1ccc(OC2C3CC4CC(C3)CC2C4)cc1` (stereo not given), the results for the T/C in the data set with Rattus norvegicus [1] and in the data set with Rattus norvegicus [2] were 0.82 and 0.67, respectively. Besides, the Selectivity ratio in the data set filed under Rattus norvegicus [3] was found to be 0.82. Moreover, the results for the Activity in the data set with Rattus norvegicus [4] and with Rattus norvegicus [5] were more than 63% and more than 73%, respectively.

`CC1(Oc2ccc(N)cc2)C2CC3CC(C2)CC1C3` (stereo not given): the results for the T/C with Rattus norvegicus [1] and in the data set on Rattus norvegicus [2] were 0.58 and 0.45, respectively. Also, the Selectivity ratio in the data set filed under Rattus norvegicus [3] is listed as 0.77. For the same compound, the values for the Activity in the data set with Rattus norvegicus [4] and with Rattus norvegicus [5] were less than 63% and more than 73%, respectively.

With `c1cc(N2CCCC2)ccc1OC1C2CC3CC(C2)CC1C3` (stereo not given), the T/C in the data set on Rattus norvegicus [1] and in the data set on Rattus norvegicus [2] was 1.07 in each case. For the same compound, the Selectivity ratio in the data set listed under Rattus norvegicus [3] is recorded as 1.01. Also, the Activity is on record as more than 63% with Rattus norvegicus [4] and more than 73% with Rattus norvegicus [5].

Regarding `CC1(Oc2ccc(N3CCCC3)cc2)C2CC3CC(C2)CC1C3` (stereo not given), the T/C came to 1.04 in the data set with Rattus norvegicus [1] and 1.03 with Rattus norvegicus [2]. Moreover, the Selectivity ratio in the data set listed under Rattus norvegicus [3] worked out at 0.99. In addition, the Activity is more than 63% with Rattus norvegicus [4] and more than 73% in the data set on Rattus norvegicus [5].

With `CNc1ccc(OC2C3CC4CC(C3)CC2C4)cc1.Cl` (stereo not given), the figures for the T/C in the data set on Rattus norvegicus [1] and in the data set on Rattus norvegicus [2] were 0.83 and 0.87, respectively. Besides, in the data set filed under Rattus norvegicus [3], the Selectivity ratio was determined as 1.04. The figures for the Activity with Rattus norvegicus [4] and in the data set on Rattus norvegicus [5] were more than 63% and more than 73%, respectively.

For the compound `Nc1ccc(O)cc1` [4-AMINOPHENOL], the T/C was determined as 0.94 in the data set with Rattus norvegicus [1] and 0.98 in the data set on Rattus norvegicus [2]. Further, in the data set listed under Rattus norvegicus [3], the Selectivity ratio was found to be 1.04. Moreover, the Activity was more than 63% with Rattus norvegicus [4] and more than 73% with Rattus norvegicus [5].
